Results on two compounds are retold here after PMC4955205, “EctD-mediated biotransformation of the chemical chaperone ectoine into hydroxyectoine and its mechanosensitive channel-independent excretion” (Microbial Cell Factories, 2016).

As a reminder, the % inhibition is the relative decrease from the control value, in per cent. A higher % inhibition goes with strong suppression.

Common to all, as to format: cell-based
For experiment [1], the target named is T1, EctD (H. elongata) (Halomonas elongata, UniProt E1VA04).
T1 construct: full length, Strep-tag II, plasmid pMP32, expressed in E. coli FF4169
T1 sequence (E1VA04 1-332): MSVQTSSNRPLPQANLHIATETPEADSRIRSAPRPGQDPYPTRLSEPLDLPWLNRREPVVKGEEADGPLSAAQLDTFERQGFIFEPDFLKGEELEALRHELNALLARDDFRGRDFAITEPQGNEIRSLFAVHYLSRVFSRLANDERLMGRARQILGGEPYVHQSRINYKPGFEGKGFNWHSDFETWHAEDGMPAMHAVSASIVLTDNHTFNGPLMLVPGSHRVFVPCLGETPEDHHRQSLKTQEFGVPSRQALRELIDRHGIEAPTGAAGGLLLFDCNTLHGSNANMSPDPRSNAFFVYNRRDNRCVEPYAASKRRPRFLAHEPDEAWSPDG
The experiment is described as follows: whole-cell biotransformation in E. coli FF4169, HPLC. Particulars: 10 mM ectoine in medium, MMA with 0.4 M NaCl, 37 °C, 24 h; Fe(II) and 2-oxoglutarate of the cell.

In experiment [2] the target is T2, EctD (N. maritimus) (Nitrosopumilus maritimus, UniProt A9A2K0).
T2 construct: gene Nmar_1343; full length, Strep-tag II, codon-optimized gene, plasmid pMP45, expressed in E. coli FF4169
T2 sequence (A9A2K0 1-304): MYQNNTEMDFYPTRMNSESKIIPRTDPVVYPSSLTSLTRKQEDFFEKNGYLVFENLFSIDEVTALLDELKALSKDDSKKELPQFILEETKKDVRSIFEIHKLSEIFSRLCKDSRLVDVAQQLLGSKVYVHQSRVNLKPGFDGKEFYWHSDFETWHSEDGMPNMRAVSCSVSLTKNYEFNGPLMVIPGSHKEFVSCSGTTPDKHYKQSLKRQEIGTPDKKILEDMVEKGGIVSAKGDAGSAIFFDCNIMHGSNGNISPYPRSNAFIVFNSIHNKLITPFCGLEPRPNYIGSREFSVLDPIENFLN
The experiment is described as above. As to conditions: 10 mM ectoine in medium, MMA with 0.4 M NaCl, 37 °C, 24 h; Fe(II) and 2-oxoglutarate of the cell.

The target in experiment [3] is T3, EctD (S. alaskensis) (Sphingopyxis alaskensis, UniProt Q1GNW5).
T3 construct: full length, Strep-tag II, plasmid pMP40, expressed in E. coli FF4169; homodimer
T3 sequence (Q1GNW5 1-306): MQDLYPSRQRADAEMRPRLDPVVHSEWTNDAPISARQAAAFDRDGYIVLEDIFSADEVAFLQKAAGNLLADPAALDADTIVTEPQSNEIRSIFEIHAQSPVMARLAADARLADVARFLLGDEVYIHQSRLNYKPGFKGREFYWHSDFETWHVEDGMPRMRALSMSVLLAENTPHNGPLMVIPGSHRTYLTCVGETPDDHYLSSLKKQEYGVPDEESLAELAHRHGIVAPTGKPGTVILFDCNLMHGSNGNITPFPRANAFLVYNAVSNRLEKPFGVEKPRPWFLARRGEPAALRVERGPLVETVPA
The experiment is described as above. As to conditions: 10 mM ectoine in medium, MMA with 0.4 M NaCl, 37 °C, 24 h; Fe(II) and 2-oxoglutarate of the cell.

Experiment [4] deals with T4, EctD (A. ehrlichii) (Alkalilimnicola ehrlichii, UniProt A0A3E0X329).
T4 construct: gene CAL65_03675; full length, Strep-tag II, codon-optimized gene, plasmid pMP44, expressed in E. coli FF4169
T4 sequence (A0A3E0X329 1-303): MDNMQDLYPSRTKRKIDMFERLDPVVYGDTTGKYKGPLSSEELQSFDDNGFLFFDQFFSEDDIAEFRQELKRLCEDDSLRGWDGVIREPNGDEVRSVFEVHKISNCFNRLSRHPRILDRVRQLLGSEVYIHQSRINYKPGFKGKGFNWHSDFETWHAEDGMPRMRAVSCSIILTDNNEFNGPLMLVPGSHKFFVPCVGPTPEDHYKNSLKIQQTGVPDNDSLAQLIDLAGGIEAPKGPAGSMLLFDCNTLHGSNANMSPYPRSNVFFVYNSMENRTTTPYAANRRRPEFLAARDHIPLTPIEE
The description is as above. Particulars: 10 mM ectoine in medium, MMA with 0.4 M NaCl, 37 °C, 24 h; Fe(II) and 2-oxoglutarate of the cell.

In experiment [5] the target is T5, EctD (P. stutzeri A1501), ectoine hydroxylase (Stutzerimonas stutzeri, UniProt A4VFY4).
T5 construct: homodimer
T5 sequence (A4VFY4 1-302): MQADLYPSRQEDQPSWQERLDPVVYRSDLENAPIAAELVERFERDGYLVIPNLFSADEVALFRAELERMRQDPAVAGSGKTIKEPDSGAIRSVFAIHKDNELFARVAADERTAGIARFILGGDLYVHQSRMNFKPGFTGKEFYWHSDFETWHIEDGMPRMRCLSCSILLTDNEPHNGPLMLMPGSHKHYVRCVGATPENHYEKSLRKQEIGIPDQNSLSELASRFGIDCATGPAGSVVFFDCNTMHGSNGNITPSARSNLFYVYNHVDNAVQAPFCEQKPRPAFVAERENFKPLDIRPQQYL
The description is as above. Particulars: 10 mM ectoine in medium, MMA with 0.4 M NaCl, 37 °C, 24 h; Fe(II) and 2-oxoglutarate of the cell.

In experiment [6] the target is T6, EctD (P. lautus) (Paenibacillus lautus, UniProt A0A385TC02).
T6 construct: gene thpD; full length, Strep-tag II, codon-optimized gene, plasmid pMP43, expressed in E. coli FF4169
T6 sequence (A0A385TC02 1-302): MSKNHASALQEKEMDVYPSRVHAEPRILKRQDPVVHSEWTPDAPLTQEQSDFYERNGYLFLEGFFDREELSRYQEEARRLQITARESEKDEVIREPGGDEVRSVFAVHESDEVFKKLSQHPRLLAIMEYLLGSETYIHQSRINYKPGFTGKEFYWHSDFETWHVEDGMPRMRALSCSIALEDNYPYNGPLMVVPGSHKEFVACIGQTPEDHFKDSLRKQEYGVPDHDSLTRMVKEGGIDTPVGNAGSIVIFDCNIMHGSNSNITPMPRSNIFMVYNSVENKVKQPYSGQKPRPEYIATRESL
The description is as above. As to conditions: 10 mM ectoine in medium, MMA with 0.4 M NaCl, 37 °C, 24 h; Fe(II) and 2-oxoglutarate of the cell.

For experiment [7], the target named is T7, ProU ABC transporter (Escherichia coli, UniProt P0AFM2).
T7 construct: gene proX; native chromosomal transporter in whole cells of a proP deletion strain; with Glycine betaine/proline betaine transport system permease protein ProW
The experiment is described as follows: inhibition of [[…]-14C]glycine betaine uptake, whole cells of ProP- ProU+ strain. Particulars: 100 µM [1-14C]glycine betaine, MMA with 0.4 M NaCl, 37 °C, 5 min.

In experiment [8] the target is T8, ProP (Escherichia coli, UniProt P0C0L7).
T8 construct: native chromosomal transporter in whole cells of a proU deletion strain
The experiment is described as follows: inhibition of [[…]-14C]glycine betaine uptake, whole cells of ProP+ ProU- strain. As to conditions: 100 µM [1-14C]glycine betaine, MMA with 0.4 M NaCl, 37 °C, 5 min; unlabelled glycine betaine 1 mM; labelled compound.

Each structure is given as a SMILES string.

T7 sequence (P14176 whole entry): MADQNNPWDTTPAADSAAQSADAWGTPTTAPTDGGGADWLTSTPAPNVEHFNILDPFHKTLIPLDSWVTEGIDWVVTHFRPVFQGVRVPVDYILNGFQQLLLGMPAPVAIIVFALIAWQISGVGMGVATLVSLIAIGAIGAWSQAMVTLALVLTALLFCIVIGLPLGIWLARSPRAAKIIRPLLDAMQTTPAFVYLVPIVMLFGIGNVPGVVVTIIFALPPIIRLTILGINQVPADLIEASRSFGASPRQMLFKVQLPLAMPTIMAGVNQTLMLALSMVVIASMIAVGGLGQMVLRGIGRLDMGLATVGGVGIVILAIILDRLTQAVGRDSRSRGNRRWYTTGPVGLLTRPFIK
T7 sequence (P0AFM2 22-330): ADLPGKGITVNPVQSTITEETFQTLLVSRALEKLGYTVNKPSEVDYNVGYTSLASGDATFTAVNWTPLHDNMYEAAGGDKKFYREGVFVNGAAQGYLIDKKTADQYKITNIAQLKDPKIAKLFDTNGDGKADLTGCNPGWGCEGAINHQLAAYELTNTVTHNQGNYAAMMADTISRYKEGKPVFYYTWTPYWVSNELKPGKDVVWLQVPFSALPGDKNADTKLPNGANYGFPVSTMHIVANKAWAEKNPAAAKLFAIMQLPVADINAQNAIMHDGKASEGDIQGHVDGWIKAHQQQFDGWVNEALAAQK
T7 sequence (P14175 whole entry, further chain): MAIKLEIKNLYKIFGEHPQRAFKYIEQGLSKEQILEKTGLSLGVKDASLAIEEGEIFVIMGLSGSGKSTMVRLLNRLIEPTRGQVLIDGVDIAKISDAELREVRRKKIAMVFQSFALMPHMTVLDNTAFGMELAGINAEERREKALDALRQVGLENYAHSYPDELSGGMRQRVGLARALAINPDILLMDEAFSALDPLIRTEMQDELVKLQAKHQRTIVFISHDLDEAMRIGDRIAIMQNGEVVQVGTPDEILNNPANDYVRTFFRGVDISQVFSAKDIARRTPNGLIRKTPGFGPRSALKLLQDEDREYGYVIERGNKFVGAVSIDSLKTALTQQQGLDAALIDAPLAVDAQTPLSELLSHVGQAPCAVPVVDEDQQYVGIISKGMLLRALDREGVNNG
T8 sequence (P0C0L7 whole entry): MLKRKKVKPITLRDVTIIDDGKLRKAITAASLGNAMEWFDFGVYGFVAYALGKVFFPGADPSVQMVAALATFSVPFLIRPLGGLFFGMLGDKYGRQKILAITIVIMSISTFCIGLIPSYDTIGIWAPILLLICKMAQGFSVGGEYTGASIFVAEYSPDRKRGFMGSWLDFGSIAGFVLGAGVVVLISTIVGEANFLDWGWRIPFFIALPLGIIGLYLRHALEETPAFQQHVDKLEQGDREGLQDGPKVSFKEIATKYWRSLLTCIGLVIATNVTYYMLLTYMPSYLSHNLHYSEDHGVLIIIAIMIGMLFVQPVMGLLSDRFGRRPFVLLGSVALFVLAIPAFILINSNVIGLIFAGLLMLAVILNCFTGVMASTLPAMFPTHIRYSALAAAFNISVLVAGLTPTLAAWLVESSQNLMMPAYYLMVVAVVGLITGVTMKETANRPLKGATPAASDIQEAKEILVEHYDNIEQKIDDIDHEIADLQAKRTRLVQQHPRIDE

Consider `CC1=NCC[C@@H](C(=O)O)N1` [ectoine, (S)-2-methyl-1,4,5,6-tetrahydropyrimidine-4-carboxylic acid], for which the “whole-cell biotransformation in E. coli FF4169, HPLC” value is “a mixture of the added ectoine and the newly produced 5-hydroxyectoine were observed” in experiment [1]; “almost all of the provided ectoine had been converted into 5-hydroxyectoine” in experiment [2]; “a mixture of the added ectoine and the newly produced 5-hydroxyectoine were observed” in experiment [3]; “a mixture of the added ectoine and the newly produced 5-hydroxyectoine were observed” in experiment [4]; “almost all of the provided ectoine had been converted into 5-hydroxyectoine” in experiment [5]; “a mixture of the added ectoine and the newly produced 5-hydroxyectoine were observed” in experiment [6]. For the same compound, the “% inhibition at 1000-fold excess” value in experiment [7] (competitor 1000-fold excess (100 mM)) was 45%.
Take `C[N+](C)(C)CC(=O)[O-]` [glycine betaine]: the “% inhibition at tenfold excess” value is on record as ~ 85% in experiment [8] and ~ 85% in experiment [7] (unlabelled glycine betaine 1 mM, labelled compound).
